Measurements from patent US20230148214A1, “INDAZOLES AND AZAINDAZOLES AS LRRK2 INHIBITORS” (ESCAPE Bio, Inc., priority 2020, published 2023).

Key:
LRRK2 G2019S = target: T1, LRRK2 G2019S (Homo sapiens, UniProt Q5S007, G2019S); assay: LRRK2 Kinase Activity Assay (LanthaScreen TR-FRET), G2019S; assay type: biochemical; conditions: recombinant G2019S-LRRK2, 25 μM ATP, 400 nM LRRKtide, 60 min; class symbols
T1 construct: purchased Life Technologies PV4881
In short: (§1)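 IC50 fitted to the compound-dependent loss of TR-FRET signal. Each kinase form, wild type or G2019S, phosphorylated the fluorescein-tagged ERM-derived LRRKtide in the presence of ATP and compound dilutions over 60 min at room temperature; quench contained 10 mM EDTA and 2 nM anti-pERM antibody (final).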

LRRK2 WT = target: T2, LRRK2 WT (Homo sapiens, UniProt Q5S007); assay: LRRK2 Kinase Activity Assay (LanthaScreen TR-FRET), wild type; assay type: biochemical; conditions: recombinant wild type LRRK2, 25 μM ATP, 400 nM LRRKtide, 60 min; class symbols
T2 construct: purchased Life Technologies PR8604B
T2 sequence (Q5S007 whole entry): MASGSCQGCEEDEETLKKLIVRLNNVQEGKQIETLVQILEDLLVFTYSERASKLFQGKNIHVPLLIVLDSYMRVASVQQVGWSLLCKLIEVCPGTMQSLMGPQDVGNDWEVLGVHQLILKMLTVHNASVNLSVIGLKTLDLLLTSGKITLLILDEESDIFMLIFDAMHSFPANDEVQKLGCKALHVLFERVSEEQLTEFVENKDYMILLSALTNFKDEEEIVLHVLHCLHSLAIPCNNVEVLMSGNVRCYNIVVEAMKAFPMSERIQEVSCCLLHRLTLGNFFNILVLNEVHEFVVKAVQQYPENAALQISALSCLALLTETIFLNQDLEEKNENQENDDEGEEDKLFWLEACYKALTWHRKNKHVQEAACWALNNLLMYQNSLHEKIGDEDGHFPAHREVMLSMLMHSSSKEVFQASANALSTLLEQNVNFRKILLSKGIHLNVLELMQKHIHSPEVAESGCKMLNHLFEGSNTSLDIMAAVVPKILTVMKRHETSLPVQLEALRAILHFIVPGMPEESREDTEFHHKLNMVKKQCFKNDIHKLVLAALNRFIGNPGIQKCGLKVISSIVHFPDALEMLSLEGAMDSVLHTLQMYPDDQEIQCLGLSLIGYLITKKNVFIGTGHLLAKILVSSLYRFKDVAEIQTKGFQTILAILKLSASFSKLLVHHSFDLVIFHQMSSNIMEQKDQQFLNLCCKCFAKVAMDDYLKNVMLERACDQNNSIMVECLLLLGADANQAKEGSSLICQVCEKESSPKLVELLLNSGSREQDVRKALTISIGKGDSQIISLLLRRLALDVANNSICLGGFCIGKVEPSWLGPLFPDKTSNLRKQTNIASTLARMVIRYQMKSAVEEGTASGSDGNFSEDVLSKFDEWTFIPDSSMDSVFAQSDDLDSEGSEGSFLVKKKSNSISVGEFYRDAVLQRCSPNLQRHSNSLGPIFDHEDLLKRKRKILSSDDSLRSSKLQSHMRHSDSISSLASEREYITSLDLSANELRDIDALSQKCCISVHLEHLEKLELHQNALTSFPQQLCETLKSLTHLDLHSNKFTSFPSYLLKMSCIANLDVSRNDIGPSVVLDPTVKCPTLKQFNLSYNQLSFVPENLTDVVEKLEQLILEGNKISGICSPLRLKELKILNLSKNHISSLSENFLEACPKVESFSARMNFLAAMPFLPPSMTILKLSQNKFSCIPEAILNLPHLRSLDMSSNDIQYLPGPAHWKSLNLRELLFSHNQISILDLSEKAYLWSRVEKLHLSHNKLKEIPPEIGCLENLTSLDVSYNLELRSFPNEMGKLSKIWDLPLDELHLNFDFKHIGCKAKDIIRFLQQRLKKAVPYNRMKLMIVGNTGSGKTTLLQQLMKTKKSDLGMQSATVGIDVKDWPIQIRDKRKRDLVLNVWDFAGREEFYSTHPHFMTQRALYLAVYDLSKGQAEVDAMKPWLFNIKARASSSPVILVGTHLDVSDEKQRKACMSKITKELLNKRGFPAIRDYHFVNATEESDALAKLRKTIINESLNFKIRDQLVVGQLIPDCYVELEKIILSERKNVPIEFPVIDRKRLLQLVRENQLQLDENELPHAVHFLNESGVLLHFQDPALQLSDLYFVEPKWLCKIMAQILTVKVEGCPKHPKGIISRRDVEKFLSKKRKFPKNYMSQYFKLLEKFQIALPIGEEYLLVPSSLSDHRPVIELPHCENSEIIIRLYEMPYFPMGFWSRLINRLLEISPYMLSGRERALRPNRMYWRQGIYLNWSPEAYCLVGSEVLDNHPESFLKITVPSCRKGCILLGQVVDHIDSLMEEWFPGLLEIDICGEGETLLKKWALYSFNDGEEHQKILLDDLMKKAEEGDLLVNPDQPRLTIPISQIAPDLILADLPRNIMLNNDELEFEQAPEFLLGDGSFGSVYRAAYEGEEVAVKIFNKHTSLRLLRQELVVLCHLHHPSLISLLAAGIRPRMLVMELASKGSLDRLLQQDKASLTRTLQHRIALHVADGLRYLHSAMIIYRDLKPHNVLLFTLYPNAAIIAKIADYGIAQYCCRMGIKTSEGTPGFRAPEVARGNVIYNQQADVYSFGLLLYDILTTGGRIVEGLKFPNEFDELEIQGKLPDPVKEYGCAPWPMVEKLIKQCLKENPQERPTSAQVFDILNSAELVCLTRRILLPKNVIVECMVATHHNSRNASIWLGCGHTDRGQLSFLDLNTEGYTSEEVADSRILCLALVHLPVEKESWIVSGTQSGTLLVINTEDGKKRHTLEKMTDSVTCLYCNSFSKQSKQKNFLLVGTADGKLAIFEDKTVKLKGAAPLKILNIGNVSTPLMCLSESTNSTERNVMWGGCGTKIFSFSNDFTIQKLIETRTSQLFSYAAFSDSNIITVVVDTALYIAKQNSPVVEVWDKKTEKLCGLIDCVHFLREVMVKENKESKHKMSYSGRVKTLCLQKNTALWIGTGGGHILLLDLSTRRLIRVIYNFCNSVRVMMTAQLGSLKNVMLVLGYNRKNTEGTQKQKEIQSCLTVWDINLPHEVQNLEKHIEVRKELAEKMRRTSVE
In short: as §1

T1 sequence (Q5S007 whole entry G2019S): as the sequence (Q5S007 whole entry) above, with G2019S counted along it

Row | IC50 (LRRK2 G2019S) | IC50 (LRRK2 WT) | Compound
1 | < 100 nM | < 100 nM | N#Cc1ccc2c(c1)CCC[C@@H]2Nc1ccc2[nH]nc(-c3ccc(C(=O)O)cc3)c2c1 (single isomer, unassigned) [Example 55, 4-(5-((6-Cyano-1,2,3,4-tetrahydronaphthalen-1-yl)amino)-1H-indazol-3-yl)benzoic acid]
2 | 100 to 1000 nM | 1000 to 10000 nM | Cn1cc2ccc(-c3n[nH]c4ccc(N[C@H]5CCCc6cc(C#N)ccc65)cc34)cc2n1 (single isomer, unassigned) [Example 56, 5-((2′-Methyl-1H,2′H-[3,6′-biindazol]-5-yl)amino)-5,6,7,8-tetrahydronaphthalene-2-carbonitrile]
3 | < 100 nM | < 100 nM | CS(=O)(=O)c1cccc(-c2n[nH]c3ccc(N[C@H]4CCCc5cc(C#N)ccc54)cc23)c1 (single isomer, unassigned) [Example 57, 5-((3-(3-(Methylsulfonyl)phenyl)-1H-indazol-5-yl)amino)-5,6,7,8-tetrahydronaphthalene-2-carbonitrile]
4 | < 100 nM | 100 to 1000 nM | COc1cc(OC)cc(-c2n[nH]c3ccc(N[C@H]4CCCc5cc(C#N)ccc54)cc23)c1 (single isomer, unassigned) [Example 58, 5-((3-(3,5-Dimethoxyphenyl)-1H-indazol-5-yl)amino)-5,6,7,8-tetrahydronaphthalene-2-carbonitrile]
5 | < 100 nM | < 100 nM | Cc1ncc(-c2n[nH]c3ccc(N[C@H]4CCCc5cc(C#N)ccc54)cc23)o1 (single isomer, unassigned) [Example 60, 5-((3-(2-Methyloxazol-5-yl)-1H-indazol-5-yl)amino)-5,6,7,8-tetrahydronaphthalene-2-carbonitrile]
6 | < 100 nM | 100 to 1000 nM | N#Cc1ccc2c(c1)CCC[C@@H]2Nc1ccc2[nH]nc(-c3ccc4cc[nH]c4c3)c2c1 (single isomer, unassigned) [Example 61, 5-((3-(1H-Indol-6-yl)-1H-indazol-5-yl)amino)-5,6,7,8-tetrahydronaphthalene-2-carbonitrile]
7 | < 100 nM | < 100 nM | Cn1cc(-c2n[nH]c3ccc(N[C@H]4CCCc5cc(C#N)ccc54)cc23)ccc1=O (single isomer, unassigned) [Example 62, 5-((3-(1-Methyl-6-oxo-1,6-dihydropyridin-3-yl)-1H-indazol-5-yl)amino)-5,6,7,8-tetrahydronaphthalene-2-carbonitrile]
8 | < 100 nM | 100 to 1000 nM | N#Cc1ccc(-c2n[nH]c3ccc(N[C@H]4CCCc5cc(C#N)ccc54)cc23)cc1 (single isomer, unassigned) [Example 63, 5-((3-(4-Cyanophenyl)-1H-indazol-5-yl)amino)-5,6,7,8-tetrahydronaphthalene-2-carbonitrile]
9 | 100 to 1000 nM | 1000 to 10000 nM | N#Cc1ccc2c(c1)CCC[C@@H]2Nc1ccc2[nH]nc(C3=CCCC3)c2c1 (single isomer, unassigned) [Example 65, 5-((3-(Cyclopent-1-en-1-yl)-1H-indazol-5-yl)amino)-5,6,7,8-tetrahydronaphthalene-2-carbonitrile]
10 | < 100 nM | 100 to 1000 nM | N#Cc1ccc2c(c1)CCC[C@@H]2Nc1ccc2[nH]nc(-c3ccc(F)c(C(=O)O)c3)c2c1 (single isomer, unassigned) [Example 66, 5-(5-((6-Cyano-1,2,3,4-tetrahydronaphthalen-1-yl)amino)-1H-indazol-3-yl)-2-fluorobenzoic acid]
11 | < 100 nM | < 100 nM | N#Cc1ccc2c(c1)CCC[C@@H]2Nc1ccc2[nH]nc(-c3ccc4scnc4c3)c2c1 (single isomer, unassigned) [Example 67, 5-((3-(Benzo[d]thiazol-5-yl)-1H-indazol-5-yl)amino)-5,6,7,8-tetrahydronaphthalene-2-carbonitrile]
12 | < 100 nM | < 100 nM | N#Cc1ccc2c(c1)CCC[C@@H]2Nc1ccc2[nH]nc(-c3cccc(C(F)F)c3)c2c1 (single isomer, unassigned) [Example 68, 5-((3-(3-(Difluoromethyl)phenyl)-1H-indazol-5-yl)amino)-5,6,7,8-tetrahydronaphthalene-2-carbonitrile]
13 | < 100 nM | < 100 nM | CONC(=O)c1cccc(-c2n[nH]c3ccc(N[C@H]4CCCc5cc(C#N)ccc54)cc23)c1 (single isomer, unassigned) [Example 69, 3-(5-((6-Cyano-1,2,3,4-tetrahydronaphthalen-1-yl)amino)-1H-indazol-3-yl)-N-methoxybenzamide]
14 | < 100 nM | 100 to 1000 nM | N#Cc1ccc2c(c1)CCC[C@@H]2Nc1ccc2[nH]nc(-c3ccc([N+](=O)[O-])cc3)c2c1 (single isomer, unassigned) [Example 70, 5-((3-(4-Nitrophenyl)-1H-indazol-5-yl)amino)-5,6,7,8-tetrahydronaphthalene-2-carbonitrile]
15 | < 100 nM | < 100 nM | COc1ccc(-c2n[nH]c3ccc(N[C@H]4CCCc5cc(C#N)ccc54)cc23)cc1OC (single isomer, unassigned) [Example 71, 5-((3-(3,4-Dimethoxyphenyl)-1H-indazol-5-yl)amino)-5,6,7,8-tetrahydronaphthalene-2-carbonitrile]
16 | < 100 nM | < 100 nM | N#Cc1ccc2c(c1)CCC[C@@H]2Nc1ccc2[nH]nc(-c3ccc(N4CCOCC4)cc3)c2c1 (single isomer, unassigned) [Example 72, 5-((3-(4-Morpholinophenyl)-1H-indazol-5-yl)amino)-5,6,7,8-tetrahydronaphthalene-2-carbonitrile]
17 | < 100 nM | 100 to 1000 nM | COc1ccc(-c2n[nH]c3ccc(N[C@H]4CCCc5cc(C#N)ccc54)cc23)cc1C (single isomer, unassigned) [Example 73, 5-((3-(4-Methoxy-3-methylphenyl)-1H-indazol-5-yl)amino)-5,6,7,8-tetrahydronaphthalene-2-carbonitrile]
18 | < 100 nM | < 100 nM | CS(=O)(=O)c1ccc(-c2n[nH]c3ccc(N[C@H]4CCCc5cc(C#N)ccc54)cc23)cc1 (single isomer, unassigned) [Example 74, 5-((3-(4-(Methylsulfonyl)phenyl)-1H-indazol-5-yl)amino)-5,6,7,8-tetrahydronaphthalene-2-carbonitrile]
19 | < 100 nM | 100 to 1000 nM | C/C=C/c1n[nH]c2ccc(N[C@H]3CCCc4cc(C#N)ccc43)cc12 (single isomer, unassigned) [Example 75, (E)-5-((3-(Prop-1-en-1-yl)-1H-indazol-5-yl)amino)-5,6,7,8-tetrahydronaphthalene-2-carbonitrile]
20 | < 100 nM | < 100 nM | N#Cc1ccc2c(c1)CCC[C@@H]2Nc1ccc2[nH]nc(-c3cncc(C4CC4)c3)c2c1 (single isomer, unassigned) [Example 76, 5-((3-(5-Cyclopropylpyridin-3-yl)-1H-indazol-5-yl)amino)-5,6,7,8-tetrahydronaphthalene-2-carbonitrile]
21 | < 100 nM | < 100 nM | N#Cc1ccc2c(c1)CCC[C@@H]2Nc1ccc2[nH]nc(-c3ccc4c(c3)OCO4)c2c1 (single isomer, unassigned) [Example 77, 5-((3-(Benzo[d][1,3]dioxol-5-yl)-1H-indazol-5-yl)amino)-5,6,7,8-tetrahydronaphthalene-2-carbonitrile]
